Counter-ions that a name gives are not always drawn.
Test system: patients with seasonal allergic rhinitis (SAR)
Experiment: MP 428 study: individual symptom severity scores (runny nose, itchy nose, sneezing, congestion; 0-3 scale)
Format: in vivo, human
Conditions: Intent-to-Treat Population
Description: A two-week, randomized, double-blind study, which evaluated the effects of the co-administration of ASTELIN® (azelastine hydrochloride (HCl)) and FLONASE® (fluticasone propionate) compared to either product alone in patients with seasonal allergic rhinitis (SAR) was conducted during the 2006 Texas mountain cedar season. After a 5-day placebo lead-in period, 151 patients with moderate-to-severe allergic rhinitis symptoms were randomized to either: (1) (49 total patients) ASTELIN® (azelastine hydrochloride (HCl)) plus placebo saline nasal spray 2 sprays per nostril, 15 minutes apart, twice daily (AM & PM); (2) (50 total patients) FLONASE® (fluticasone propionate) plus placebo saline nasal spray, 2 sprays per nostril, 15 minutes apart, once daily (AM) and two sessions of placebo saline nasal spray, 2 sprays per nostril, 15 minutes apart (PM); or (3) (52 total patients) the co-administration of ASTELIN® (azelastine hydrochloride (HCl)) 2 sprays per nostril plus FLONASE® (fluticasone propionate) 2 sprays per nostril (AM), 15 minutes apart, and ASTELIN® (azelastine hydrochloride (HCl)) 2 sprays per nostril plus placebo saline nasal spray, 15 minutes apart, (PM) for a 2-week double-blind treatment period.
The primary efficacy variable was the change from baseline in the Total Nasal Symptom Score (TNSS), which comprised sneezing, itchy nose, runny nose, and nasal congestion (individual symptoms scores were assigned a value between 0 and 3, where 0=no symptoms and 3=severe symptoms). This study was not statistically designed to assess the differences between ASTELIN® and FLONASE®.
The results of the clinical trial are summarized and presented in Appendix A hereinbelow and in FIGS. 1-6. […] FIGS. 2-5 show the mean improvement in severity score (0-3 scale) from baseline for the symptoms of runny nose, itchy nose, sneezing and congestion, respectively.

## CN1CCCC(n2nc(Cc3ccc(Cl)cc3)c3ccccc3c2=O)CC1 (racemic) [Azelastine, (±)-1-(2H)-phthalazinone, 4-[(4-chlorophenyl)methyl]-2-(hexahydro-1-methyl-1H-azepin-4-yl)-, mono-hydrochloride]
Day 12
  Percent Change from Baseline in AM and PM Combined Nasal Symptom Score: Congestion, LS Mean: −21.71%
  Percent Change from Baseline in AM and PM Combined Nasal Symptom Score: Congestion, Mean: −22.63%
  Percent Change from Baseline in AM and PM Combined Nasal Symptom Score: Congestion, Median: −16.67%
  Percent Change from Baseline in AM and PM Combined Nasal Symptom Score: Itchy Nose, LS Mean: −29.11%
  Percent Change from Baseline in AM and PM Combined Nasal Symptom Score: Itchy Nose, Mean: −28.74%
  Percent Change from Baseline in AM and PM Combined Nasal Symptom Score: Itchy Nose, Median: −16.67%
  Percent Change from Baseline in AM and PM Combined Nasal Symptom Score: Runny Nose, LS Mean: −22.75%
  Percent Change from Baseline in AM and PM Combined Nasal Symptom Score: Runny Nose, Mean: −23.43%
  Percent Change from Baseline in AM and PM Combined Nasal Symptom Score: Runny Nose, Median: −8.40%
  Percent Change from Baseline in AM and PM Combined Nasal Symptom Score: Sneezing, LS Mean: −34.92%
  Percent Change from Baseline in AM and PM Combined Nasal Symptom Score: Sneezing, Mean: −34.06%
  Percent Change from Baseline in AM and PM Combined Nasal Symptom Score: Sneezing, Median: −33.33%
Day 13
  Change from Baseline in AM and PM Combined Nasal Symptom Score: Congestion, LS Mean: −1.25
  Change from Baseline in AM and PM Combined Nasal Symptom Score: Congestion, Mean: −1.29
  Change from Baseline in AM and PM Combined Nasal Symptom Score: Congestion, Median: −1.00
  Change from Baseline in AM and PM Combined Nasal Symptom Score: Itchy Nose, LS Mean: −1.44
  Change from Baseline in AM and PM Combined Nasal Symptom Score: Itchy Nose, Mean: −1.43
  Change from Baseline in AM and PM Combined Nasal Symptom Score: Itchy Nose, Median: −1.15
  Change from Baseline in AM and PM Combined Nasal Symptom Score: Runny Nose, LS Mean: −1.36
  Change from Baseline in AM and PM Combined Nasal Symptom Score: Runny Nose, Mean: −1.38
  Change from Baseline in AM and PM Combined Nasal Symptom Score: Runny Nose, Median: −1.07
  Change from Baseline in AM and PM Combined Nasal Symptom Score: Sneezing, LS Mean: −1.60
  Change from Baseline in AM and PM Combined Nasal Symptom Score: Sneezing, Mean: −1.60
  Change from Baseline in AM and PM Combined Nasal Symptom Score: Sneezing, Median: −1.75
  Percent Change from Baseline in AM and PM Combined Nasal Symptom Score: Congestion, LS Mean: −22.44%
  Percent Change from Baseline in AM and PM Combined Nasal Symptom Score: Congestion, Mean: −23.01%
  Percent Change from Baseline in AM and PM Combined Nasal Symptom Score: Congestion, Median: −18.64%
  Percent Change from Baseline in AM and PM Combined Nasal Symptom Score: Itchy Nose, LS Mean: −32.25%
  Percent Change from Baseline in AM and PM Combined Nasal Symptom Score: Itchy Nose, Mean: −31.63%
  Percent Change from Baseline in AM and PM Combined Nasal Symptom Score: Itchy Nose, Median: −22.33%
  Percent Change from Baseline in AM and PM Combined Nasal Symptom Score: Runny Nose, LS Mean: −27.36%
  Percent Change from Baseline in AM and PM Combined Nasal Symptom Score: Runny Nose, Mean: −27.57%
  Percent Change from Baseline in AM and PM Combined Nasal Symptom Score: Runny Nose, Median: −24.05%
  Percent Change from Baseline in AM and PM Combined Nasal Symptom Score: Sneezing, LS Mean: −35.90%
  Percent Change from Baseline in AM and PM Combined Nasal Symptom Score: Sneezing, Mean: −35.28%
  Percent Change from Baseline in AM and PM Combined Nasal Symptom Score: Sneezing, Median: −30.43%
Day 14
  Change from Baseline in AM and PM Combined Nasal Symptom Score: Congestion, LS Mean: −1.33
  Change from Baseline in AM and PM Combined Nasal Symptom Score: Congestion, Mean: −1.39
  Change from Baseline in AM and PM Combined Nasal Symptom Score: Congestion, Median: −1.05
  Change from Baseline in AM and PM Combined Nasal Symptom Score: Itchy Nose, LS Mean: −1.39
  Change from Baseline in AM and PM Combined Nasal Symptom Score: Itchy Nose, Mean: −1.39
  Change from Baseline in AM and PM Combined Nasal Symptom Score: Itchy Nose, Median: −1.15
  Change from Baseline in AM and PM Combined Nasal Symptom Score: Runny Nose, LS Mean: −1.32
  Change from Baseline in AM and PM Combined Nasal Symptom Score: Runny Nose, Mean: −1.34
  Change from Baseline in AM and PM Combined Nasal Symptom Score: Runny Nose, Median: −1.43
  Change from Baseline in AM and PM Combined Nasal Symptom Score: Sneezing, LS Mean: −1.51
  Change from Baseline in AM and PM Combined Nasal Symptom Score: Sneezing, Mean: −1.50
  Change from Baseline in AM and PM Combined Nasal Symptom Score: Sneezing, Median: −1.35
  Percent Change from Baseline in AM and PM Combined Nasal Symptom Score: Congestion, LS Mean: −23.87%
  Percent Change from Baseline in AM and PM Combined Nasal Symptom Score: Congestion, Mean: −24.78%
  Percent Change from Baseline in AM and PM Combined Nasal Symptom Score: Congestion, Median: −20.79%
  Percent Change from Baseline in AM and PM Combined Nasal Symptom Score: Itchy Nose, LS Mean: −31.60%
  Percent Change from Baseline in AM and PM Combined Nasal Symptom Score: Itchy Nose, Mean: −31.14%
  Percent Change from Baseline in AM and PM Combined Nasal Symptom Score: Itchy Nose, Median: −25.00%
  Percent Change from Baseline in AM and PM Combined Nasal Symptom Score: Runny Nose, LS Mean: −25.17%
  Percent Change from Baseline in AM and PM Combined Nasal Symptom Score: Runny Nose, Mean: −25.22%
  Percent Change from Baseline in AM and PM Combined Nasal Symptom Score: Runny Nose, Median: −29.41%
  Percent Change from Baseline in AM and PM Combined Nasal Symptom Score: Sneezing, LS Mean: −30.86%
  Percent Change from Baseline in AM and PM Combined Nasal Symptom Score: Sneezing, Mean: −29.95%
  Percent Change from Baseline in AM and PM Combined Nasal Symptom Score: Sneezing, Median: −27.93%
Overall (Day 2 to Day 14)
  Change from Baseline in AM and PM Combined Nasal Symptom Score: Congestion, LS Mean: −1.08
  Change from Baseline in AM and PM Combined Nasal Symptom Score: Congestion, Mean: −1.12
  Change from Baseline in AM and PM Combined Nasal Symptom Score: Congestion, Median: −0.77
  Change from Baseline in AM and PM Combined Nasal Symptom Score: Itchy Nose, LS Mean: −1.14
  Change from Baseline in AM and PM Combined Nasal Symptom Score: Itchy Nose, Mean: −1.16
  Change from Baseline in AM and PM Combined Nasal Symptom Score: Itchy Nose, Median: −0.98
  Change from Baseline in AM and PM Combined Nasal Symptom Score: Runny Nose, LS Mean: −1.06
  Change from Baseline in AM and PM Combined Nasal Symptom Score: Runny Nose, Mean: −1.08
  Change from Baseline in AM and PM Combined Nasal Symptom Score: Runny Nose, Median: −0.67
  Change from Baseline in AM and PM Combined Nasal Symptom Score: Sneezing, LS Mean: −1.48
  Change from Baseline in AM and PM Combined Nasal Symptom Score: Sneezing, Mean: −1.49
  Change from Baseline in AM and PM Combined Nasal Symptom Score: Sneezing, Median: −1.31
  Percent Change from Baseline in AM and PM Combined Nasal Symptom Score: Congestion, LS Mean: −19.23%
  Percent Change from Baseline in AM and PM Combined Nasal Symptom Score: Congestion, Mean: −19.82%
  Percent Change from Baseline in AM and PM Combined Nasal Symptom Score: Congestion, Median: −12.82%
  Percent Change from Baseline in AM and PM Combined Nasal Symptom Score: Itchy Nose, LS Mean: −25.36%
  Percent Change from Baseline in AM and PM Combined Nasal Symptom Score: Itchy Nose, Mean: −25.53%
  Percent Change from Baseline in AM and PM Combined Nasal Symptom Score: Itchy Nose, Median: −19.66%
  Percent Change from Baseline in AM and PM Combined Nasal Symptom Score: Runny Nose, LS Mean: −20.47%
  Percent Change from Baseline in AM and PM Combined Nasal Symptom Score: Runny Nose, Mean: −21.06%
  Percent Change from Baseline in AM and PM Combined Nasal Symptom Score: Runny Nose, Median: −15.44%
  Percent Change from Baseline in AM and PM Combined Nasal Symptom Score: Sneezing, LS Mean: −34.20%
  Percent Change from Baseline in AM and PM Combined Nasal Symptom Score: Sneezing, Mean: −33.98%
  Percent Change from Baseline in AM and PM Combined Nasal Symptom Score: Sneezing, Median: −33.20%

From patent US8758816B2, “Compositions comprising azelastine and methods of use thereof” (priority 2004, dated 2014)
